The target of test [1] is T1, androgen receptor (Homo sapiens, UniProt P10275).
T1 sequence (P10275 1-920 Q868H): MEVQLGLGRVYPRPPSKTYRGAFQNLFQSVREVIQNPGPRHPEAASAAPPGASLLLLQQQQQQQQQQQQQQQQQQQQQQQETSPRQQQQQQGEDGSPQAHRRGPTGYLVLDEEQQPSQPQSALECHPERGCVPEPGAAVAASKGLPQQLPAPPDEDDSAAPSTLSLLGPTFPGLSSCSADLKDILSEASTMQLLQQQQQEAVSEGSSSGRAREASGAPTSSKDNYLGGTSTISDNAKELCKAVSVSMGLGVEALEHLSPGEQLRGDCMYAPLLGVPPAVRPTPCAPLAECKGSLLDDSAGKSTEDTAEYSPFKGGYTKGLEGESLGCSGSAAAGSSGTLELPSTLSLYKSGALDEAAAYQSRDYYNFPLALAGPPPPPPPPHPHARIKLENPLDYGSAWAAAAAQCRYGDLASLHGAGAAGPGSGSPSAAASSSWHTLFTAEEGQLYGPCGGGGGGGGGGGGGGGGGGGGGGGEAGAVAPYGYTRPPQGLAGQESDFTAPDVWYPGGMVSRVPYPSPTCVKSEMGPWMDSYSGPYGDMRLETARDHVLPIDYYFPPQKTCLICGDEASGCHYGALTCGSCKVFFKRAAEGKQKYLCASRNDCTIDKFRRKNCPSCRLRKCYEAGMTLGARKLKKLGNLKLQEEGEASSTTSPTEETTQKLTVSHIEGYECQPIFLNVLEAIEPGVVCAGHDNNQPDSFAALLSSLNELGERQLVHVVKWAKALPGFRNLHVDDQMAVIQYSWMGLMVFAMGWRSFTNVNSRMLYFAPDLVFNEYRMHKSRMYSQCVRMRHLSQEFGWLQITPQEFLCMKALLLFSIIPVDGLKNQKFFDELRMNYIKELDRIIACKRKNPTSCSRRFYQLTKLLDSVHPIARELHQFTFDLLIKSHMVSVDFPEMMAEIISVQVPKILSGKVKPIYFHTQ
Description: AR antagonist cell assay, MDA-MB453-MMTV clone 54-19 luciferase reporter. The class given is cell-based. Particulars: MDA-MB453-MMTV clone 54-19, 100 pM DHT, 17 hr; mean of multiple tests; read-out: AR Cell IC50. As for the experimental part:
The compounds ability to antagonize the effects of androgen on the androgen receptor were determined in a whole cell assay as described immediately below.
This cell line is a stable transfected cell line with MDA-MB453 cell background (a human breast tumor cell line expressing androgen receptor). A MMTV minimal promoter containing ARE was first cloned in front of a firefly luciferase reporter gene. Then the cascade was cloned into transfection vector pUV120puro. Electroporation method was used for transfecting MDA-MB-453 cell. Puromycin resistant stable cell line was selected.
• 1. Cells are maintained in culture medium, splitting cells when they reach 80-90% confluence • 2. To test compounds, 10,000 cells/well are plated to opaque 96 cell culture plate in 100 ul/well plating medium, culture for overnight at 37° C. in cell culture incubator • 3. Carefully remove plating medium, then add 80 ul/well of pre-warmed assay medium, add 10 ul/well testing compound (final concentration at) 1000 nM, 200 nM, 40 nM, 8 nM, 1.6 nM, and 0.32 nM), incubate at 37° C. for 30 minutes • 4. Add 10 ul/well freshly prepared DHT (final concentration at 100 pM) to each well, incubate at 37° C. for 17 hr (overnight) • 5.
The results are reported as the mean of multiple tests as described below (the numbers of tests are indicated in the footnote). N.D. denotes that the compound was not tested.
On the technique in general: A reporter such as luciferase makes a cellular process visible.

Test [2] relates to Male C3H/HeN mice. Description: Modified telogen conversion assay (hair growth, induction of anagen). In kind it is in vivo. The note with it: topical twice daily for 4 weeks. The source says: It has been discovered that male C3H/HeN mice may be used in the telogen conversion assay, when evaluating anti-androgen test compounds. Thus, the model relates to a modification of the existing telogen conversion assay. Male C3H/HeN mice approximately 7 weeks old are utilized. These animals are also uniformly in telogen, like their female counterparts. However, once shaven, the androgens inherently present in these male mice inhibit the conversion of the hair follicles to the anagen phase. An anti-androgen will block this androgenic effect and the follicles will convert to anagen, like their female counterparts.
Male C3H/HeN mice, 6 to 7 weeks old (Charles River Laboratories, Raleigh, N.C.) were used for the study. Fur was clipped from the dorsal region of the mice prior to initiation of the study. Only mice with pink skin, a visual indication of the telogen phase, were selected for inclusion in the study.
The test compound was dissolved in a vehicle consisting of propylene glycol (30%) and ethanol (70%) to achieve a concentration of either 0.2% w/v, 0.5% w/v, 1% w/v or 3% w/v. The relevant dose was applied topically to the clipped dorsal region of the mice in one test group (7-10 mice) in a volume of 20 μl/cm^2. A third group of animals received only the vehicle to serve as a control. Treatments were applied twice daily for 4 weeks.
The treatment area was observed and graded every other day for signs of hair growth. The hair growth response was quantified by recording, for each animal, the day on which signs of hair growth first appeared over the treated area. The first sign of anagen was the darkening of skin color as melanocytes in the follicles started to synthesize melanin in preparation for the production of pigmented hairs. […] The percentage of mice showing signs of hair growth in both the treatment group and the control group is graphically depicted in FIG. 1.

Experimental findings from patent US7576128B2 (priority 2004, dated 2009) are described below.

Structures are written as SMILES.

Broadly, the IC50 is the concentration needed to halve the response being measured.

Consider `C[C@H](O)CC[C@H](C)Oc1ccc(C#N)c(C(F)(F)F)c1` [Example 23, (1S,4S)-4-(4-Hy-droxy-1-methylpentyl-oxy)-2-tri-fluoromethyl-benzonitrile], for which the IC50 in test [1] amounted to 132 nM. Also, in test [2] (5% test group), the “rate of hair growth versus vehicle control group” value was “did not exceed that of the vehicle control group”. Also, the “hair growth (induction of anagen)” value in test [2] (concentration of 1%) is “produced substantial hair growth”.
Take `CCCCC(COc1ccc(C#N)c(C(F)(F)F)c1)C(C)O` (stereo not shown) [Example 15, 4-[2-(1-Hydroxy-ethyl)-hexyloxy]-2-tri-fluoromethyl-benzonitrile]: in test [1], the IC50 was found to be 124 nM.
